Measurements published in patent US12569438B2, “Nanomaterials containing constrained lipids and uses thereof” (GEORGIA TECH RESEARCH CORPORATION, priority 2019, dated 2026).

System: splenic T cells
Test: DNA barcode/siGFP high throughput in vivo screen: delivery and enrichment of pooled LNPs in GFP^Low splenic T cells
Design: species or system mice
Details: pooled LNPs 1.5 mg/kg total iv, 3 days
Excerpt: DNA Barcoding. Each chemically distinct LNP was formulated to carry its own unique DNA barcode and siRNA. For example, LNP1 carried DNA barcode 1 and siICAM2, while the chemically distinct LNP2 carried DNA barcode 2 and siGFP. Single stranded DNA sequences were purchased from Integrated DNA Technologies (IDT). To ensure equal amplification of each sequence, we included universal forward and reverse primer regions. Each barcode was distinguished using a unique 8 nucleotide sequence. An 8 nucleotide sequence can generate 65,536 distinct barcodes. 156 distinct sequences designed to prevent sequence ‘bleaching’ on the Illumina MiniSeq sequencing machine were used.
Animal Experiments. […] Mice were injected intravenously via the lateral tail vein. The nanoparticle concentration was determined using NanoDrop (Thermo Scientific).
Cell Isolation & Staining. […]
LNP delivery of siRNA to target cells (in this case, T lymphocytes) as well as 8 off-target cell types in vivo was evaluated. siGFP chemically modified to reduce immunostimulation and enhance on-target silencing via preferential antisense RISC loading (FIG. S2A) was used. […] The GFP acted as the functional delivery readout. […] Thus, 3 days after injecting mice, GFP^Low cells were isolated using fluorescence activated cell sorting (FACS), and deep sequenced to quantify the efficiency with which all N LNPs delivered barcodes into the cells. […]

CCCCC/C=C\C/C=C\CCCCCCCC(=O)OCC(COC(=O)C[C@]12CC3CC(C[C@@H](C3)C1)C2)COC(=O)OCCCN(CC)CC (some centres unmarked) [Lipomer 11-A, 3-[(1-Adamantanyl)acetoxy]-2-{[3-(diethylamino)propoxycarbonyloxy]methyl}propyl (9Z,12Z)-9,12-octadecadienoate]
Normalized DNA delivery (GFP^Low splenic T cells): significantly more delivery than 11-L and 11-S | Enrichment in T Cells (splenic T cells, top 10% vs bottom 10% LNPs, DSPC formulations): most enriched
